Measured values reported in patent US6528536B1, “Fungicidal mixtures” (BASF Aktiengesellschaft, priority 1997, dated 2003).

Tested on: powdery mildew of wheat (Erysiphe graminis forma specialis tritici)
Test: Activity against powdery mildew of wheat (protective spray on wheat seedlings, greenhouse)
Format: in vivo
Details: evaluated after 7 days
Description: The active ingredients, separately or together, were formulated as a 10% emulsion in a mixture of 70% by weight of cyclohexanone, 20% by weight of Nekanil® LN (Lutensol® AP6, wetting agent having emulsifying and dispersing action, based on ethoxylated alkylphenols) and 10% by weight of Emulphor® EL (Emulan® EL, emulsifier based on ethoxylated fatty alcohols) and diluted with water to give the desired concentration.
Leaves of wheat seedlings cv. “Fr{umlaut over (u )}hgold” which had been grown in pots were sprayed to runoff point with an aqueous preparation of active ingredient which had been made from a stock solution comprising 10% of active compound, 63% of cyclohexanone and 27% of emulsifier, and, 24 hours after the spray coating had dried on, were dusted with spores of powdery mildew of wheat (Erysiphe graminis forma specialis tritici). […] After 7 days, the extent of mildew development was determined visually in % infection of the total leaf area.
Evaluation was carried out by determining the infected leaf areas in percent. […] The efficacy (E) was calculated as follows using Abbot's formula: […]
The expected degrees of action of the mixtures of the active ingredients were determined using Colby's formula [R. S. Colby, Weeds 15, (1967) 20-22] and compared with the observed degrees of action. […]

In the case of CO/N=C(/C(=O)OC)c1ccccc1COc1ccccc1C [Ia], the “Efficacy in % of the untreated contol” value (0.3 ppm active ingredient in the spray liquor) is reported as 0% and the “Efficacy in % of the untreated contol” value (0.6 ppm active ingredient in the spray liquor) is reported as 0%.
